According to patent US20240182443A1, “POLYMORPHIC FORMS OF COMPOUND AND PREPARATION METHOD THEREFOR AND APPLICATION THEREOF” (SHANGHAI MEIYUE BIOTECH DEVELOPMENT CO., LTD., priority 2021, published 2024):
In brackets after ≈: the same amount, converted by molar mass.

Legend:
Format in all cases: physicochemical
[1] = Solid stability and chemical stability of crystalline forms III and VII (60° C./sealed and 40° C./75% RH/open, 7 days; HPLC, XRPD); conditions: for chemical stability / crystalline form change (XRPD): 40° C./75% RH (open); for chemical stability / crystalline form change (XRPD) / physical and chemical stability / Purity-7 days (Area %): 7 days; for physical and chemical stability: 60° C. (sealed); for Purity-7 days (Area %) / Initial purity (Area %): HPLC; for Initial purity (Area %): before stability storage
Protocol: The crystalline forms III and VII were subjected to solid stability and chemical stability experiments under conditions of 60° C./sealed and 40° C./75% RH/open for 7 days. […] The amount of the crystalline form IV that formed in the crystalline form III is slightly greater than that in the crystalline form VII.

[2] = Competitive slurrying experiment of crystalline forms I, III, VII and IX in butanone and isopropyl acetate; conditions: VII and IX slurried with butanone and isopropyl acetate
Protocol: A competitive slurrying experiment was carried out by slurrying a certain amount of each of the crystalline forms I, III, VII and IX with butanone and isopropyl acetate.

[3] = HPLC purity of the solubility test samples (stability in biological media); conditions: for HPLC (24 h): calculated as 100% HPLC purity before; for HPLC purity change: all three biological media, calculated as 100% HPLC purity before standing in the media
Protocol: (§1) The solubility of both the crystalline forms III and VII increased with decreasing pH value of the biological medium. Both the crystalline forms were most soluble in SGF (0.323 mg/mL VS 0.183 mg/mL @ 0.5 h) and least soluble in FaSSIF (0.034 mg/mL VS 0.025 mg/mL @ 0.5 h). […] Both the crystalline forms degraded to a certain extent as the stirring continued in the solubility test. The crystalline forms of the crystalline forms III and VII in all the three biological media changed. […] Thus, the compound is unstable in biological media (Table 13).

[4] = Solubility test in biological media (SGF, FaSSIF, FeSSIF) with XRPD of samples after the test; conditions: for solubility at 0.5 h / solubility at 2 h / solubility at 24 h: thermodynamic from solid
Protocol: as §1

[5] = DVS (dynamic vapor sorption) hygroscopicity test with XRPD of the post-DVS sample; conditions: for hygroscopicity (DVS): within a range of 0-80% RH, 25° C.
Protocol: DVS tests were carried out using a dynamic vapor sorption instrument (Vsorp-Enhanced, proUmid) under the following conditions: adding a sufficient amount of a sample to the Vsorp-Enhanced instrument for simulation of dynamic vapor sorption, recording changes in weight at 25° C. with different humidity equilibrium levels, and subjecting the post-DVS test sample to an XRPD test.
The crystalline form III was characterized by XRPD, PLM, DSC, TGA and DVS. […] (FIG. 8). […] (FIG. 8). The DVS results (FIG. 9) show slight hygroscopicity at only 0.22% within a range of 0-80% RH.
The crystalline form VII was characterized by XRPD, PLM, DSC, TGA and DVS.

[6] = Test for effects of humidity on crystalline forms III and VII at 40° C. (XRPD); conditions: for physical stability (XRPD) / crystalline form change (XRPD): 40° C., 23 h; for physical stability (XRPD): 70% RH; for crystalline form change (XRPD): 80% and 90% RH; for physical stability: at 70% RH or less
Protocol: Therefore, they were further studied at 40° C. for the effects of humidity.

Compound	chemical stability [1]	crystalline form change (XRPD) [1]	physical and chemical stability [1]	Purity-7 days (Area %) ([1]; 40° C./75% RH, open)	Purity-7 days (Area %) ([1]; 60° C., sealed)	Initial purity (Area %) [1] [Area %]	HPLC (24 h) ([3]; FaSSIF) [%]	HPLC (24 h) ([3]; FeSSIF) [%]	HPLC (24 h) ([3]; SGF) [%]	HPLC purity change [3]	crystalline form after solubility test (XRPD) ([4]; FaSSIF)	pH ([4]; FaSSIF, 0.5 h)	Solubility ([4]; FaSSIF, 2 h) [µg/mL]	pH ([4]; FaSSIF, 2 h)	pH ([4]; FaSSIF, 24 h)	crystalline form after solubility test (XRPD) ([4]; FeSSIF)	pH ([4]; FeSSIF, 0.5 h)	pH ([4]; FeSSIF, 2 h)	pH ([4]; FeSSIF, 24 h)	crystalline form after solubility test (XRPD) ([4]; SGF)	other results
COc1cc2nn([C@H]3CC[C@](C)(O)CC3)cc2cc1NC(=O)c1cccc(C)[n+]1[O-] [crystalline form VII, 2-((2-(trans-4-hydroxy-cis-4-methylcyclohexyl)-6-methoxy-2H-indazol-5-yl)carbamoyl)-6-methylpyridine 1-oxide]	chemically stable	a small amount of hydrate crystalline form IV formed	physically and chemically stable	99.93	99.94	99.92	93.49	93.13	99.46	decreased to a certain extent	transformed into the crystalline form IV	6.42	29 (≈ 70.7 µM)	6.44	6.48	transformed into the crystalline form IV	4.86	4.90	4.91	a crystal mixture of the crystalline forms IV and XV	crystalline form resulting from competitive slurrying [2]: can be produced from various slurrying processes; Solubility ([4]; FaSSIF, 0.5 h): 25 µg/mL (≈ 60.9 µM); Solubility ([4]; FaSSIF, 24 h): 7 µg/mL (≈ 17.1 µM); solubility at 0.5 h ([4]; FeSSIF, 0.5 h): 68 µg/mL (≈ 166 µM); solubility at 2 h ([4]; FeSSIF, 2 h): 65 µg/mL (≈ 158 µM); solubility at 24 h ([4]; FeSSIF, 24 h): 65 µg/mL (≈ 158 µM); Solubility ([4]; SGF, 0.5 h): 183 µg/mL (≈ 446 µM); pH ([4]; SGF, 0.5 h): 1.23; pH ([4]; SGF, 2 h): 1.16; pH ([4]; SGF, 24 h): 1.26; solubility at 2 h ([4]; SGF, simulated gastric fluid, 2 h): 147 µg/mL (≈ 358 µM); solubility at 24 h ([4]; SGF, simulated gastric fluid, 24 h): 92 µg/mL (≈ 224 µM); crystalline form after the DVS test (XRPD) [5]: remained the same as that before the DVS test; hygroscopicity (DVS) [5]: 0.29%; physical stability (XRPD) [6]: physically stable; crystalline form change (XRPD) [6]: a small amount of hydrate crystalline form IV formed; physical stability [6]: physically stable
COc1cc2nn([C@H]3CC[C@](C)(O)CC3)cc2cc1NC(=O)c1cccc(C)[n+]1[O-] [crystalline form III, 2-((2-(trans-4-hydroxy-cis-4-methylcyclohexyl)-6-methoxy-2H-indazol-5-yl)carbamoyl)-6-methylpyridine 1-oxide]	chemically stable	a small amount of hydrate crystalline form IV formed	physically and chemically stable	99.96	99.97	99.96	97.99	96.89	99.69	decreased to a certain extent	transformed into the crystalline form IV	6.47	9 (≈ 21.9 µM)	6.47	6.45	a crystal mixture of the crystalline forms IV and XIII	4.88	4.92	4.94	transformed into the crystalline form IV	solubility at 0.5 h ([4]; FaSSIF, 0.5 h): 34 µg/mL (≈ 82.8 µM); solubility at 24 h ([4]; FaSSIF, 24 h): 7 µg/mL (≈ 17.1 µM); Solubility ([4]; FeSSIF, 0.5 h): 105 µg/mL (≈ 256 µM); Solubility ([4]; FeSSIF, 2 h): 67 µg/mL (≈ 163 µM); Solubility ([4]; FeSSIF, 24 h): 58 µg/mL (≈ 141 µM); pH ([4]; SGF, 0.5 h): 1.09; Solubility ([4]; SGF, 2 h): 289 µg/mL (≈ 704 µM); pH ([4]; SGF, 2 h): 1.07; Solubility ([4]; SGF, 24 h): 89 µg/mL (≈ 217 µM); pH ([4]; SGF, 24 h): 1.24; solubility at 0.5 h ([4]; SGF, simulated gastric fluid, 0.5 h): 323 µg/mL (≈ 787 µM); solubility at 0.5 h relative to crystalline form VII ([4]; all three biological media, 0.5 h): 1.5 times; crystalline form after the DVS test (XRPD) [5]: transformed into a crystal mixture of the crystalline forms III and IV; hygroscopicity (DVS) [5]: 0.22%; physical stability (XRPD) [6]: physically stable; crystalline form change (XRPD) [6]: a small amount of hydrate crystalline form IV formed; physical stability [6]: physically stable
